Measurements reported in patent US20240148821A1, “PHARMACEUTICAL USE OF CYCLIC PEPTIDE COMPOUND” (CHUGAI SEIYAKU KABUSHIKI KAISHA, priority 2021, published 2024).
Numbered stars: 1 amine (or outer) side, 2 acyl side, 3 side chain; on linkers, the order of the positions; unused ones are H or OH. Bridge positions count the residues as written; N and C are the ends. Square brackets hold non-standard residues; d marks the D form. Peptide text beside a SMILES is read from it. * marks the point of attachment. hPhe(3,5-F2-4-CF3) = N[C@@H](CCc1cc(F)c(C(F)(F)F)c(F)c1)C(=O)O; hPhe(3-Cl-4-CF3) = N[C@@H](CCc1ccc(C(F)(F)F)c(Cl)c1)C(=O)O; NMePhe(4-CF3) = CN[C@@H](Cc1ccc(C(F)(F)F)cc1)C(=O)O; NEtPhe(4-Me) = CCN[C@@H](Cc1ccc(C)cc1)C(=O)O; NMePhe(4-Cl) = CN[C@@H](Cc1ccc(Cl)cc1)C(=O)O; NMedβ3hAla = C[C@H](CC(=O)[*:2])N(C)[*:1]; NMeGly(cPent) = CN[C@H](C(=O)O)C1CCCC1; NMeCha = CN[C@@H](CC1CCCCC1)C(=O)O; Hyp = O=C(O)[C@@H]1C[C@@H](O)CN1; NMeChg = CN[C@H](C(=O)O)C1CCCCC1; NMeI = CC[C@H](C)[C@H](NC)C(=O)O; NMeD = CN[C@@H](CC(=O)O)C(=O)O; NMeL = CN[C@@H](CC(C)C)C(=O)O; NMeV = CN[C@H](C(=O)O)C(C)C; d(β3hA) = C[C@@H](N)CC(=O)O; NMeS = CN[C@@H](CO)C(=O)O; Morpholide = C1CN(*)CCO1; NMeA = CN[C@@H](C)C(=O)O; NMeAib = CNC(C)(C)C(=O)O; Piperidide = C1CCN(*)CC1; dNMeA = CN[C@H](C)C(=O)O; Ac5c = NC1(C(=O)O)CCCC1; Aze = O=C(O)[C@@H]1CCN1; Ac4c = NC1(C(=O)O)CCC1; Sar = CNCC(=O)O; Propyl = CCC*

Tests used:
[1] = target: protein-protein interaction between Kras and SOS1 (biotin-tagged human Kras loaded with GDP, His-tagged human SOS1) (Homo sapiens (Human), UniProt P01116, G12D); assay: Protein-protein interaction inhibition between Kras and SOS1 (KrasG12D-SOS PPI) using AlphaScreen; type: biochemical; settings: AlphaScreen; biotin-tagged human Kras loaded with GDP, His-tagged human SOS1; read-out: KRAS G12D-SOS PPI IC50;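 further: kras produced in E. coli, Ni-coupled donor beads and streptavidin acceptor beads, excitation 680 nm with emission detected at 520–620 nm via singlet oxygen transfer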
[2] = system: Human pancreatic cancer cell line AsPC-1 (G12D mutation Kras); assay: AsPC-1 cell growth inhibition (AsPC-1 CGI); type: cell-based; settings: read-out: AsPC-1 cell growth inhibition, 50% growth inhibitory concentration (IC50 value); 96 hours, CellTiter-Glo, values classified in ranges
Experimental: Test compounds were serially dilated with dimethyl sulfoxide, and 200 nL was then dispensed to a U-bottom 96-well plate using Labcyte Echo. […] The cell suspension was dispensed to a. plate containing a test compound at 100 μL per well and incubated at 37° C. in a 5% carbon dioxide gas incubator. 96 hours later, 80 μL of CellTiter-Glo (Promega) was added to each well and fluorescence was measured.

Structure (SMILES)	IC50 [1]	IC50 [2]
CC[C@H](C)[C@@H]1NC(=O)[C@H](CC(C)C)N(C)C(=O)C[C@@H](C)N(C)C(=O)[C@H](CC(C)C)NC(=O)C(C)(C)N(C)C(=O)[C@H](CC(C)C)NC(=O)[C@H](CCc2cc(F)c(C(F)(F)F)c(F)c2)NC(=O)CN(C)C(=O)[C@H](Cc2ccc(Cl)cc2)N(C)C(=O)CN(C)C(=O)CN(C)C1=O [Compound 687] (cyclo(I[Sar][Sar][NMePhe(4-Cl)][Sar][hPhe(3,5-F2-4-CF3)]L[NMeAib]L[NMedβ3hAla][NMeL]))	16 nM	> 500 nM
CCCOC[C@H]1C(=O)N(C)CC(=O)N[C@@H](CCc2ccc(C(F)(F)F)c(Cl)c2)C(=O)N2CCC[C@H]2C(=O)NC2(CCCC2)C(=O)N(C)[C@@H]([C@@H](C)CC)C(=O)N(C)[C@H](C(=O)N2CCCCC2)CC(=O)N(C)[C@@H](CC(C)C)C(=O)N[C@@H]([C@@H](C)CC)C(=O)N(C)[C@@H](C)C(=O)N2CC[C@H]2C(=O)N1C [Compound 690] ([NMeL]I[NMeA][Aze][NMeS](Propyl)[Sar][hPhe(3-Cl-4-CF3)]P[Ac5c][NMeI][NMeD]-Piperidide; lactam N-11)	1.8 nM	≤ 20 nM
CCCOC[C@H]1C(=O)NC2(CCCC2)C(=O)N(C)[C@@H](C2CCCCC2)C(=O)N(C)[C@H](C(=O)N2CCCCC2)CC(=O)N(C)[C@@H](CC(C)C)C(=O)N[C@@H]([C@@H](C)CC)C(=O)N(C)CC(=O)N(C)CC(=O)N(C)[C@@H](CC2CCCCC2)C(=O)N(C)CC(=O)N[C@@H](CCc2ccc(C(F)(F)F)c(Cl)c2)C(=O)N1C [Compound 692] ([NMeL]I[Sar][Sar][NMeCha][Sar][hPhe(3-Cl-4-CF3)][NMeS](Propyl)[Ac5c][NMeChg][NMeD]-Piperidide; lactam N-11)	6.9 nM	> 500 nM
CCCOC[C@H]1C(=O)N(C)CC(=O)N[C@@H](CCc2ccc(C(F)(F)F)c(Cl)c2)C(=O)N2CCC[C@H]2C(=O)NC2(CCCC2)C(=O)N(C)[C@@H]([C@@H](C)CC)C(=O)N(C)[C@H](C(=O)N2CCOCC2)CC(=O)N(C)[C@@H](CC(C)C)C(=O)N[C@@H]([C@@H](C)CC)C(=O)N(C)[C@@H](C)C(=O)N2CC[C@H]2C(=O)N1C [Compound 693] ([NMeL]I[NMeA][Aze][NMeS](Propyl)[Sar][hPhe(3-Cl-4-CF3)]P[Ac5c][NMeI][NMeD]-Morpholide; lactam N-11)	1.6 nM	≤ 20 nM
CCO[C@@H]1C[C@H]2C(=O)NC3(CCCC3)C(=O)N(C)[C@@H]([C@@H](C)CC)C(=O)N(C)[C@H](C)CC(=O)N(C)[C@@H](CC(C)C)C(=O)N[C@@H]([C@@H](C)CC)C(=O)N(C)CC(=O)N(C)CC(=O)N(C)[C@@H](Cc3ccc(C(F)(F)F)cc3)C(=O)N(C)CC(=O)N[C@@H](CCc3ccc(C(F)(F)F)c(Cl)c3)C(=O)N2C1 [Compound 695] (cyclo([Ac5c][NMeI][NMedβ3hAla][NMeL]I[Sar][Sar][NMePhe(4-CF3)][Sar][hPhe(3-Cl-4-CF3)][Hyp](Et)))	2.3 nM	≤ 20 nM
CC[C@H](C)[C@@H]1NC(=O)[C@H](CC(C)C)N(C)C(=O)C[C@@H](C(=O)N2CCCCC2)N(C)C(=O)[C@H](C(C)C)N(C)C(=O)C2(CCCC2)NC(=O)[C@@H]2CCCN2C(=O)[C@H](CCc2ccc(C(F)(F)F)c(Cl)c2)NC(=O)CN(C)C(=O)[C@H](CC2CCCCC2)N(C)C(=O)[C@@H]2CCN2C(=O)[C@@H]2CCCN2C1=O [Compound 709] ([NMeL]IP[Aze][NMeCha][Sar][hPhe(3-Cl-4-CF3)]P[Ac5c][NMeV][NMeD]-Piperidide; lactam N-11)	41 nM	> 500 nM
CCO[C@@H]1C[C@H]2C(=O)NC3(CCC3)C(=O)N(C)[C@@H](C3CCCC3)C(=O)N(C)[C@H](C)CC(=O)N(C)[C@@H](CC(C)C)C(=O)N[C@@H]([C@@H](C)CC)C(=O)N(C)[C@@H](C)C(=O)N3CC[C@H]3C(=O)N(CC)[C@@H](Cc3ccc(C)cc3)C(=O)N(C)CC(=O)N[C@@H](CCc3ccc(C(F)(F)F)c(Cl)c3)C(=O)N2C1 [Compound 713] (cyclo([Ac4c][NMeGly(cPent)][NMedβ3hAla][NMeL]I[NMeA][Aze][NEtPhe(4-Me)][Sar][hPhe(3-Cl-4-CF3)][Hyp](Et)))	4 nM	≤ 20 nM
CC[C@H](C)[C@@H]1NC(=O)[C@H](C)N(C)C(=O)C[C@@H](C(=O)N2CCCCC2)N(C)C(=O)[C@H](C(C)C)N(C)C(=O)C2(CCCC2)NC(=O)[C@H](Cc2ccc(Cl)cc2)N(C)C(=O)[C@H](CCc2ccc(C(F)(F)F)c(Cl)c2)NC(=O)CN(C)C(=O)[C@H](CC2CCCCC2)N(C)C(=O)CN(C)C(=O)CN(C)C1=O [Compound 718] ([NMeA]I[Sar][Sar][NMeCha][Sar][hPhe(3-Cl-4-CF3)][NMePhe(4-Cl)][Ac5c][NMeV][NMeD]-Piperidide; lactam N-11)	39 nM	> 500 nM
CC[C@H](C)[C@@H]1NC(=O)[C@H](C)N(C)C(=O)C[C@@H](C)NC(=O)[C@H](C2CCCC2)N(C)C(=O)C2(CCCC2)NC(=O)[C@@H]2CCCN2C(=O)[C@H](CCc2ccc(C(F)(F)F)c(Cl)c2)NC(=O)[C@@H](C)N(C)C(=O)[C@H](Cc2ccc(Cl)cc2)N(C)C(=O)[C@@H]2CCN2C(=O)[C@H](C)N(C)C1=O [Compound 720] (cyclo([Ac5c][NMeGly(cPent)][d(β3hA)][NMeA]I[NMeA][Aze][NMePhe(4-Cl)][dNMeA][hPhe(3-Cl-4-CF3)]P))	39 nM	> 500 nM
